Data reported in patent publication US8216800B2, “Substrates for detecting peptidase activity and methods using the substrates” (Biomerieux, priority 2007, dated 2012).

What was measured:
Experiment in all cases: Peptidase activity detection on Columbia agar containing substrate
Assay type in all cases: cell-based
[1] = test system: Bacillus subtilis NCTC 9372; design: key: − = no fluorescence detected; e = trace of fluorescence; +/− = weak fluorescence; + = medium fluorescence; ++ = strong fluorescence; NG = No Growth; details: substrate 100 mg/l, 24 hours at 37° C., UV 360-365 nm
Method: (§1) 40 mg of each substrate are dissolved in 4 ml of dimethylformamide (DMF). This solution is completely taken up in 400 ml of Columbia agar autoclaved beforehand and kept molten at 50° C. The final concentration for each substrate is therefore 100 mg/l. Each of the media is distributed into 90 mm Petri dishes in a proportion of 20 ml per dish.
(§2) 18 microorganism strains derived from collections and belonging to various species of bacteria and of yeasts are inoculated onto these media by semi-quantitative isolation of 10 μl of a suspension at 0.5 McFarland diluted to 1/20. The media are incubated for 24 hours at 37° C., and then the colonies formed are examined visually under UV illumination at 360-365 nm.

[2] = test system: Candida albicans ATCC 90028; design: key: − = no fluorescence detected; e = trace of fluorescence; +/− = weak fluorescence; + = medium fluorescence; ++ = strong fluorescence; NG = No Growth; details: substrate 100 mg/l, 24 hours at 37° C., UV 360-365 nm
Method: as §1, §2

[3] = test system: Candida glabrata NCPF3943; design: key: − = no fluorescence detected; e = trace of fluorescence; +/− = weak fluorescence; + = medium fluorescence; ++ = strong fluorescence; NG = No Growth; details: substrate 100 mg/l, 24 hours at 37° C., UV 360-365 nm
Method: as §1, §2

[4] = test system: Citrobacter freundii 46262 (wild); design: key: − = no fluorescence detected; e = trace of fluorescence; +/− = weak fluorescence; + = medium fluorescence; ++ = strong fluorescence; NG = No Growth; details: substrate 100 mg/l, 24 hours at 37° C., UV 360-365 nm
Method: as §1, §2

[5] = test system: Enterobacter cloacae NCTC 11936; design: key: − = no fluorescence detected; e = trace of fluorescence; +/− = weak fluorescence; + = medium fluorescence; ++ = strong fluorescence; NG = No Growth; details: substrate 100 mg/l, 24 hours at 37° C., UV 360-365 nm
Method: as §1, §2

[6] = test system: Enterococcus faecalis NCTC 775; design: key: − = no fluorescence detected; e = trace of fluorescence; +/− = weak fluorescence; + = medium fluorescence; ++ = strong fluorescence; NG = No Growth; details: substrate 100 mg/l, 24 hours at 37° C., UV 360-365 nm
Method: as §1, §2

[7] = test system: Enterococcus faecium NCTC 7171; design: key: − = no fluorescence detected; e = trace of fluorescence; +/− = weak fluorescence; + = medium fluorescence; ++ = strong fluorescence; NG = No Growth; details: Enterococcus faecium NCTC 7171 (Table 3); substrate 100 mg/l, 24 hours at 37° C., UV 360-365 nm
Method: as §1, §2

[8] = test system: Escherichia coli NCTC 10418; design: key: − = no fluorescence detected; e = trace of fluorescence; +/− = weak fluorescence; + = medium fluorescence; ++ = strong fluorescence; NG = No Growth; details: substrate 100 mg/l, 24 hours at 37° C., UV 360-365 nm
Method: as §1, §2

[9] = test system: Listeria monocytogenes NCTC 11994; design: key: − = no fluorescence detected; e = trace of fluorescence; +/− = weak fluorescence; + = medium fluorescence; ++ = strong fluorescence; NG = No Growth; details: substrate 100 mg/l, 24 hours at 37° C., UV 360-365 nm
Method: as §1, §2

[10] = test system: Morganella morganii 462403 (wild); design: key: − = no fluorescence detected; e = trace of fluorescence; +/− = weak fluorescence; + = medium fluorescence; ++ = strong fluorescence; NG = No Growth; details: substrate 100 mg/l, 24 hours at 37° C., UV 360-365 nm
Method: as §1, §2

[11] = test system: Providencia rettgeri NCTC 7475; design: key: − = no fluorescence detected; e = trace of fluorescence; +/− = weak fluorescence; + = medium fluorescence; ++ = strong fluorescence; NG = No Growth; details: substrate 100 mg/l, 24 hours at 37° C., UV 360-365 nm
Method: as §1, §2

[12] = test system: Salmonella Typhimurium NCTC 74; design: key: − = no fluorescence detected; e = trace of fluorescence; +/− = weak fluorescence; + = medium fluorescence; ++ = strong fluorescence; NG = No Growth; details: substrate 100 mg/l, 24 hours at 37° C., UV 360-365 nm
Method: as §1, §2

[13] = test system: Serratia marcescens NCTC 10211; design: key: − = no fluorescence detected; e = trace of fluorescence; +/− = weak fluorescence; + = medium fluorescence; ++ = strong fluorescence; NG = No Growth; details: substrate 100 mg/l, 24 hours at 37° C., UV 360-365 nm
Method: as §1, §2

[14] = test system: Staphylococcus aureus NCTC 11939; design: key: − = no fluorescence detected; e = trace of fluorescence; +/− = weak fluorescence; + = medium fluorescence; ++ = strong fluorescence; NG = No Growth; details: Staphylococcus aureus (MRSA) NCTC 11939; substrate 100 mg/l, 24 hours at 37° C., UV 360-365 nm
Method: as §1, §2

[15] = test system: Staphylococcus aureus NCTC 6571; design: key: − = no fluorescence detected; e = trace of fluorescence; +/− = weak fluorescence; + = medium fluorescence; ++ = strong fluorescence; NG = No Growth; details: substrate 100 mg/l, 24 hours at 37° C., UV 360-365 nm
Method: as §1, §2

[16] = test system: Staphylococcus epidermidis NCTC 11047; design: key: − = no fluorescence detected; e = trace of fluorescence; +/− = weak fluorescence; + = medium fluorescence; ++ = strong fluorescence; NG = No Growth; details: substrate 100 mg/l, 24 hours at 37° C., UV 360-365 nm
Method: as §1, §2

[17] = test system: Streptococcus pyogenes NCTC 8306; design: key: − = no fluorescence detected; e = trace of fluorescence; +/− = weak fluorescence; + = medium fluorescence; ++ = strong fluorescence; NG = No Growth; details: substrate 100 mg/l, 24 hours at 37° C., UV 360-365 nm
Method: as §1, §2

[18] = test system: Yersinia enterocolitica NCTC 11176; design: key: − = no fluorescence detected; e = trace of fluorescence; +/− = weak fluorescence; + = medium fluorescence; ++ = strong fluorescence; NG = No Growth; details: substrate 100 mg/l, 24 hours at 37° C., UV 360-365 nm
Method: as §1, §2

[19] = test system: Burkholderia cepacia 1222; design: key to fluorescence intensity: − = no fluorescence detected; e = trace of fluorescence; +/− = weak fluorescence; + = medium fluorescence; ++ = strong fluorescence; NG = No Growth; details: Burkholderia cepacia 1222; substrate 100 mg/l, 24 hours at 37° C., UV 360-365 nm
Method: as §1, §2

[20] = test system: Pseudomonas aeruginosa NCTC 10662; design: key to fluorescence intensity: − = no fluorescence detected; e = trace of fluorescence; +/− = weak fluorescence; + = medium fluorescence; ++ = strong fluorescence; NG = No Growth; details: for fluorescence intensity: Pseudomonas aeruginosa NCTC 10662, substrate 100 mg/l, 24 hours at 37° C., UV 360-365 nm
Method: as §1, §2

[21] = test system: Enterococcus faecium NCTC 11047; design: key: − = no fluorescence detected; e = trace of fluorescence; +/− = weak fluorescence; + = medium fluorescence; ++ = strong fluorescence; NG = No Growth; details: Enterococcus faecium NCTC 11047 (Table 2); substrate 100 mg/l, 24 hours at 37° C., UV 360-365 nm
Method: as §1, §2

[22] = test system: Gram-positive bacterial strains and the yeasts; details: all the Gram-positive bacterial strains and the yeasts
Method: as §1, §2

[23] = test system: Staphylococcus aureus strains; details: the two Staphylococcus aureus strains
Method: as §1, §2

[24] = test system: Gram-negative bacterial strains; details: all the Gram-negative bacterial strains with the exception of the Burkholderia cepacia strain
Method: as §1, §2

enterococcal strains = details: the two enterococcal strains
Method: as §1, §2

Row | Structure (SMILES) | fluorescence intensity [1] | fluorescence intensity [4] | fluorescence intensity [5] | fluorescence intensity [6] | fluorescence intensity [7] | fluorescence intensity [9] | fluorescence intensity [12] | fluorescence intensity [13] | fluorescence intensity [17] | fluorescence intensity [19] | fluorescence intensity [20] | fluorescence intensity [2] | fluorescence intensity [3] | fluorescence intensity [8] | fluorescence intensity [11] | fluorescence intensity [14] | fluorescence intensity [15] | fluorescence intensity [16] | fluorescence intensity [18] | fluorescence intensity [21] | also measured
1 | C[C@H](N)C(=O)Nc1ccccc1-c1nc2ccccc2n1CCc1ccccc1 [Substrate 14] | − | − | +/− | − | − | − | − | +/− | − | − | − | − | − | − | − | − | − | − | − |  | fluorescence intensity [10]: −
2 | C[C@H](N)C(=O)Nc1ccccc1-c1nc2ccccc2s1 [Substrate 17] | NG |  | + | NG |  | NG | NG | + | NG | + | + | NG | NG | + | + | NG | NG | NG | + | NG | toxicity (growth inhibition, text) [22]: inhibited
3 | C[C@H](N)C(=O)Nc1ccccc1-c1nc2ccccc2o1 [Substrate 1] | − |  | ++ | +/− |  | +/− | ++ | ++ | − | − | ++ | − | − | ++^1 | ++ | + | + | − | ++ | +/− | fluorescence produced [24]: strong blue fluorescence; fluorescence produced [23]: medium green fluorescence; fluorescence produced (enterococcal strains): weak blue fluorescence

Continued, in another order:

Row | fluorescence intensity [1] | fluorescence intensity [4] | fluorescence intensity [5] | fluorescence intensity [6] | fluorescence intensity [7] | fluorescence intensity [9] | fluorescence intensity [12] | fluorescence intensity [13] | fluorescence intensity [17] | fluorescence intensity [19] | fluorescence intensity [20] | Structure (SMILES) | fluorescence intensity [2] | fluorescence intensity [3] | fluorescence intensity [8] | fluorescence intensity [11] | fluorescence intensity [14] | fluorescence intensity [15] | fluorescence intensity [16] | fluorescence intensity [18] | fluorescence intensity [21] | also measured
4 | − | ++ | ++ | − | − | − | ++ | ++ | − | ++ | − | C[C@H](N)C(=O)Nc1cc2c(cc1-c1nc3ccccc3n1CCc1ccccc1)OCO2 [Substrate 16] | − | − | ++ | ++ | − | − | − | − |  | fluorescence intensity [10]: +
5 | NG |  | + | +/− |  | − | NG | ++ | − | − | +/− | C[C@H](N)C(=O)Nc1ccccc1-c1nc2cc(Cl)ccc2o1 [Substrate 4] | − | − | NG^2 | + | − | − | − | + | − | fluorescence produced ([20]; Pseudomonas aeruginosa strain): weak violet fluorescence; fluorescence produced [23]: no fluorescence was detected
